Measured values: the METLIN SMRT retention time set (Domingo-Almenara et al. 2019)

Assay: gradient 5% acetonitrile 3 min, to 50% in 2 min, to 85% in 15 min, held 3 min, 100 µL/min
Settings: column: Zorbax Extend-C18 2.1 x 50 mm; eluents: water / acetonitrile, 0.1% formic acid
Outline: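 Over 3 months, pure standards in mixtures of ~100 molecules were run by HPLC coupled to a quadrupole time-of-flight mass spectrometer in positive and negative ionization mode. The column was a Zorbax Extend-C18 (2.1 × 50 mm, 1.8 μm) at 100 μL/min, eluted with water and acetonitrile each holding 0.1% formic acid, with 40 μL dead and 900 μL dwell volumes. Retention time was determined from adduct peaks chosen by software and checked manually.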

Compound | RP-LC retention time [s]
CCN1c2ccc(C)cc2C(=O)NC12CCN(C(=O)c1ccc(F)c(F)c1)CC2 | 826
O=C(C1CC1)N1CCC(c2noc(-c3ccccc3)n2)C1 (centres undefined) | 956
Cc1ccccc1N1CCN(C(=O)c2ccnc(N3CCCC3)n2)CC1 | 996
COC(=O)c1cccc(C(=O)Nc2cc(Cl)ccc2C)n1 | 999
CNC(=O)[C@H]1O[C@@H](n2cnc3c(NCc4cccc(I)c4)ncnc32)C(O)[C@H]1O (some centres undefined) | 730
CCOC(=O)CC(=O)Nc1ccc(-c2nc(-c3cc(C)ccc3C)co2)cc1 | 1110
O=C(c1ccc(F)c(F)c1Nc1ccc(I)cc1F)N1CC(O)([C@H]2CCCCN2)C1 | 822
Cc1[nH]nc(-c2ccc(S(=O)(=O)NC3CC3)o2)c1C | 723
CN(C(=O)c1ccncc1)c1ccccc1 | 667
Cc1nc2nc(-c3ccc(C(C)(C)C)cc3)nn2c(C)c1CC(=O)N(C)Cc1ccccc1 | 1110
CCOc1ccc(C(O)CN2CCN(C3CCCCC3)CC2)cc1 (centres undefined) | 569
O=c1[nH]ccc2c(O)cccc12 | 584
c1ccc2sc(C3(N4CCCC4)CCCCC3)cc2c1 | 799
CCCn1cc(C(=O)NCCC2=CCCCC2)c2nn(-c3ccccc3)c(=O)c-2c1 | 1090
CCc1cc(C(=O)Nc2ccc(C)cc2C)nc2ccnn12 | 1090
CCOC(=O)c1c(S(=O)(=O)N2CCC(C(=O)Nc3ccc(C)cc3)CC2)c(C)n(C)c1C | 886
Cc1ccc(NC(=O)Cn2c(N3CCOCC3)nc(C)cc2=O)c(Cl)c1 | 755
Cc1nnc(-c2nnc(NCc3ccc(Cl)cc3)c3ccccc23)o1 | 886
Cc1cc(F)ccc1NS(=O)(=O)c1cc(-c2nc(C(C)(C)C)cs2)cs1 | 1260
COC(=O)c1cccc(NC(=O)CCc2cccc3[nH]ccc23)c1 | 847
CC1CCCN(c2nccn3c(=O)n(CC(=O)Nc4ccc(Br)cc4F)nc23)C1 (centres undefined) | 911
O=C(CSc1nnc2c3sc(N4CCCC4)nc3ncn12)N1CCN(c2ccc(F)cc2)CC1 | 834
COCC(=O)Nc1cc(=O)n(C)c(=O)n1C | 552

Compound | RP-LC retention time [s]
O=C(Cn1c(=O)oc2ccccc21)Nc1nc(-c2ccc(Br)cc2)cs1 | 1050
COc1ccc(-c2noc(Cc3nnc(-c4cc(F)cc(F)c4)o3)n2)cc1 | 1040
CS(=O)(=O)c1ccc(Nc2nc(C(=O)NCC3CCCO3)cs2)cc1 (centres undefined) | 636
COCc1nn(CC2CC2)c2c1CN(C(=O)c1ccc(OC)cc1)CC2 | 715
Cc1oc2ccn(Cc3ccccc3F)c(=O)c2c1C(=O)NC1CCCCC1 | 1160
CN1C(=O)c2ccccc2Oc2ccc(C(=O)NCc3ccc4c(c3)OCO4)cc21 | 826
COC(=O)C1=CN(c2ccc(F)cc2C)c2ccc(F)cc2S1(=O)=O | 920
Cc1ccc(CN2CCN(CC(C)C(=O)NCc3ccc(F)cc3F)C(=O)C2=O)cc1 (centres undefined) | 755
CSc1ccccc1N1CCN(CCCCCC(=O)NC2CCCc3ccccc32)CC1 (centres undefined) | 855
Cc1ccc2c(c1)OCC(=O)N2Cc1nc(-c2cccc(C(F)(F)F)c2)no1 | 919
CCC(=O)Nc1ccc(-n2cnc(C(=O)N3CCN(c4ccccc4OC)CC3)c2)nc1 | 667
COc1ccc(OCCN2CC(=O)N(c3ccc(C)c(C)c3)[C@@H]3CS(=O)(=O)C[C@@H]32)cc1 | 859
Cc1ccc2c(c1)N(S(C)(=O)=O)CCC(C(=O)NCc1ccc(Cl)cc1)O2 (centres undefined) | 954
O=C(NCc1cccnc1)C1CCCN(c2ncnc3c2nc2n3CCCCC2)C1 (centres undefined) | 577
Cc1nn(C)c(C)c1S(=O)(=O)N1CC=C(c2cn(C)c3ncccc23)CC1 | 754
COc1ccc(-c2ccc3c(N4CCOCC4)nc(N4C[C@@H](C)O[C@@H](C)C4)nc3n2)cc1CO | 698
CCc1cc(C2CCCN2C(=O)c2cnn3c(C(F)(F)F)cc(-c4ccco4)nc23)on1 (centres undefined) | 870
COc1ccc(Cl)cc1NS(=O)(=O)c1cc(-c2cc(C(F)(F)F)[nH]n2)sc1C | 1060
CC1CC(=O)c2cnc(N3CCN(c4ccccc4)CC3)nc2C1 (centres undefined) | 1080
COc1ccccc1CCC(=O)N1CCN(c2cc(-c3cccs3)[nH]n2)CC1 | 838
CCOC(=O)c1cc(S(=O)(=O)N2CCCC2C(=O)NC2CCCC2)cn1C (centres undefined) | 732
COc1cc(CN2CCCC2c2cc(C)on2)cc(OC)c1O (centres undefined) | 582
O=C1CCN(C(=O)COc2ccc(Cl)cc2Cl)c2ccccc2N1 | 792

Compound | RP-LC retention time [s]
O=C(C1CCN(c2nc3ccc(-c4cccnc4)nc3s2)CC1)N1CCOCC1 | 592
CC(C)c1nncn1C1CCN(S(=O)(=O)Cc2ccccc2F)CC1 | 688
CCc1cccc(NC(=O)N2CCCC2c2nncn2C2CCCC2)c1 (centres undefined) | 742
O=S(=O)(c1cccc(Cl)c1)N1CC(F)(F)C[C@H]1CN1CCc2ccccc2C1 | 788
Cc1cc(N2CCN(S(=O)(=O)c3ccccc3)CC2)nc(NC2CCCCC2)n1 | 776
CCCOc1ccc(CNC(=O)c2cnc(OC)nc2)cc1 | 803
COc1cccc(-c2noc(CN3C(=O)COc4ccc(Cl)cc43)n2)c1OC | 1020
CCOC(=O)CNC(=O)N1CCN(c2nc3ccccc3n2CC)CC1 | 602
Cc1ccc(Cn2c(N3CCC(C(=O)NCC(C)C)CC3)nc3ccsc3c2=O)cc1 | 920
O=C(NCc1csc(-c2ccccc2)n1)C1CCN(S(=O)(=O)c2ccccc2)CC1 | 903
Cc1cccc(Sc2nccnc2N2CCCC(C(=O)NCc3ccc(C)c(C)c3)C2)c1 (centres undefined) | 1210
Cc1ccc(NC(=O)c2[nH]c3cc(C)sc3c2CN2CCOCC2)c(Cl)c1 | 731
CCn1cc(S(=O)(=O)N2CCC3(CC2)CC(OCc2ccccc2)CCO3)cn1 (centres undefined) | 897
COc1ccc(S(=O)(=O)Cc2nc(-c3cccc(Br)c3)no2)cc1 | 1090
COc1ccc(-c2noc(-c3nc(Cc4ccccc4)no3)n2)cc1OC | 1100
O=C(C1CCN(c2nnc(-c3ccccc3)o2)CC1)N1CCN(c2ccccc2)CC1 | 857
O=C(CN1CC=C(c2cnn(-c3ccc(F)cc3)c2)CC1)N1CCN(c2ccccc2F)CC1 | 748
Cc1ccc(-c2nnc(Cc3nc(-c4cccc(Cl)c4)no3)o2)cc1C | 1230
O=c1ccc(-c2nc(-c3ccncc3)no2)nn1Cc1ccc(F)cc1Cl | 904
CCOC(=O)c1ccc2c(c1)NCc1cccc(OC)c1O2 | 1030
CCN(c1ccc(OC)cc1)S(=O)(=O)c1ccc2c(c1)CCCC(=O)N2 | 804
CC(C)n1cnc2cc(CNC(=O)Cc3c[nH]c4ccccc34)ccc21 | 604
Cc1sc(-c2cc(C(F)(F)F)on2)cc1S(=O)(=O)NC1CC1 | 1040

Compound | RP-LC retention time [s]
Cc1ccc(S(=O)(=O)N2CCC(N3CCN(Cc4ccccc4)C(=O)C3=O)CC2)cc1Cl | 799
O=C(c1ccc(Cl)c(Cl)c1)N1CCN(c2ccc(-c3ccco3)nn2)CC1 | 733
COc1ccccc1NC(=O)C1CCN(S(=O)(=O)c2c(C)nn(-c3ccccc3)c2C)CC1 | 981
CCOc1ccc(-c2csc(NC(=O)CCCOc3ccc(OC)cc3)n2)cc1 | 1080
Cc1ccc(-n2cc3c(c(C(=O)NC(C)C)c2=O)CC(C)(C)CC3=O)cc1 | 932
Cc1cc(O)c(C(C)C)cc1NC(=O)Nc1cccc2ccccc12 | 1190
O=C1CC(c2ccccc2)Cc2[nH]c(=O)c(C(=O)Nc3cccc(C(F)(F)F)c3)cc21 (centres undefined) | 1020
Clc1ccc(Cc2noc(Cc3nc(-c4ccccc4)cs3)n2)cc1 | 1170
CCOC(=O)c1nnc2c(-c3ccc(F)cc3)c(C)nn2c1C | 986
O=C(NCC1CCCO1)C1CCN(c2nccnc2Sc2ccccc2)CC1 (centres undefined) | 796
CN(C)C(=O)Cn1cnc2ccccc2c1=O | 583
Cn1c(C(=O)NCC2CCCO2)cc2c1CCN(Cc1cccc(F)c1)C2 (centres undefined) | 618
Cc1cc(N)n(-c2nc(C)nc3sc4c(c23)CCC(C)C4)n1 (centres undefined) | 857
CC1CCN(S(=O)(=O)c2ccc(-c3nnc(C(=O)NCc4ccccc4)o3)cc2)CC1 | 1040
CN(C)C(CNC(=O)Nc1ccccc1Cl)c1cn(C)c2ccccc12 (centres undefined) | 589
Cn1cc(C2=CCN(C(=O)c3cc(F)cc(F)c3)CC2)c2cccnc21 | 846
O=C(NCCCN1CCCC1)C1CCN(c2nccnc2Sc2ccccc2)CC1 | 650
O=C(CCc1cc2ccccc2[nH]c1=O)N1CCN(C(=O)c2ccco2)CC1 | 638
CCCn1ccc2sc(C)c(C(=O)NCc3ccccc3OC)c2c1=O | 896
O=C(Cn1nc(N2CCOCC2)c2ccccc2c1=O)Nc1cccc(C(F)(F)F)c1 | 894
